This note sets out measurements from US20250009852A1, “DEPLETING EGFR AND HER2 OVERCOMES RESISTANCE TO EGFR INHIBITORS IN COLORECTAL CANCER” (Health Research, Inc., priority 2021, published 2025).

The subject of one data set is EGFR. In words: Immunofluorescence staining and confocal microscopy of EGFR trafficking in SW48 cells. The following applies: chloroquine 25 μM plus PEPD^G278D 25 nM. It is filed as cell-based, human. The method, then:
SW48 cells were grown in chamber slides (4×10^4 cells/well) overnight with or without subsequent treatment with PEPD^G278D (25 nM) and/or chloroquine (25 μM) for up to 6 h. The cells were then washed with ice-cold PBS, fixed with 4% paraformaldehyde for 20 min at room temperature (RT), washed again with ice-cold PBS and blocked with 1% BSA in PBS for 1 h at RT. The cells were then incubated with an EGFR antibody, a His tag antibody for detection of PEPD^G278D, and/or a LAMP1 antibody overnight at 4° C., washed with PBS, incubated with a secondary antibody conjugated to Alexa-Fluor 488 or Alexa-Fluor 647 antibody for 1 h at RT and washed again with PBS. The cells were then examined with a BZ-X700 fluorescence microscope (Keyence) with a S PL FL ELWD ADM 40xC objective. Merged images from Z-stack were organized using the ImageJ software (NIH Image).

The test system of data set [1] is HER3, IGF1R, MET, SRC, AKT, ERK, MEK, NRAS, HRAS, caspase 3. In words: Western blotting of tumor homogenates: other signaling proteins. It is filed as in vivo, mouse. The following applies: HCT116 and HT29 tumors; single agent. The method, then: (§1) To prepare whole cell lysates, cells were washed with PBS twice, mixed with 1× cell lysis buffer from Cell Signaling Technology supplemented with 2 mM PMSF and a protease inhibitor cocktail from Roche Applied Science, placed on ice for 10 min, sonicated at 0-4° C. to enhance cell lysis using a Branson Model 450 sonifier, and finally centrifuged at 13,000 g for 10 min at 4° C., and the supernatant fraction is collected as whole cell lysate. Tumor and samples were mixed with RIPA buffer (25 mM Tris-HCl, PH7.6, 150 mM NaCl, 1% Nonidet P-40, 1% sodium deoxycholate, and 0.1% SDS), which was supplemented with 2 mM PMSF, the protease inhibitor cocktail mentioned above, phosphatase inhibitor cocktail 2 and phosphatase inhibitor cocktail 3 from Sigma-Aldrich at 14.3 μl buffer per mg tissue, and homogenized in a Dounce homogenizer. The homogenates were cleared by centrifugation at 13,000 g for 15 min at 4° C.
Protein concentrations in all samples were measured using the BCA Assay Kit. For Western blotting, each sample was mixed with 4× loading dye, heated for 5 min at 95° C., and resolved by SDS-PAGE (8-12.5%). Proteins were transferred to polyvinylidene fluoride membrane, probed with specific antibodies, and detected using either Luminata Classico (Millipore) or Luminata Cresendo (Millipore). […] The beads were washed three times with IP buffer, suspended in 2× SDS loading buffer, boiled for 5 min, and analyzed by Western blotting.
SCID mice (C.B.17 SCID) were bred by the Laboratory Animal Shared Resource at Roswell Park Comprehensive Cancer Center. […] Subcutaneous tumor volume was measured using length ×width^2÷2. Tumor volume was measured three times each week. Orthotopic tumor growth was monitored by bioluminescence weekly. Mice were given D-luciferin (150 mg/kg) by ip and anesthetized with isoflurane, and tumor burden was measured by bioluminescence using the IVIS Spectrum In Vivo Imaging System (PerkinElmer). Drug treatment was started when significant tumor growth was detected. […] The mice were closely monitored for sign of adverse effects and weighed three times each week.
(In general: Immunoblotting shows a protein as a band on a membrane.)

In a further data set the test system is HT29 tumors. In words: Subcutaneous HT29 tumors in SCID mice. It is filed as in vivo, mouse. The following applies: sc HT29 tumors; 5-FU 35 mg/kg ip every 4 days (FIG. 14). The method, then:
SCID mice (C.B.17 SCID) were bred by the Laboratory Animal Shared Resource at Roswell Park Comprehensive Cancer Center. Male mice at 7-8 weeks of age were used. All mouse experiments were approved by the Institutional Animal Care and Use Committee at Roswell Park Comprehensive Cancer Center under protocol 1022M. We established subcutaneous tumors by inoculating 1×10^6 HCT116 cells, 4×10^6 HT29 cells, or 2×10^6 SW48 cells to the flank of each mouse in 100 μl of serum free medium. Colon patient-derived xenograft (PDX) 14650 was established from a liver metastatic lesion in a patient treated at Roswell Park Comprehensive Cancer Center. Tumor fragments (˜20 mm^3) from donor mice were implanted into the flank of each mouse subcutaneously using a trocar. Orthotopic colon tumors in mice were established by inoculating HCT116 cells stably transfected with firefly luciferase (2×10^6 cells in 50 μl of 50% serum-free medium and 50% Matrigel) to the caecum wall of each mouse. Mice in each tumor model were randomized cage-wise into treatment groups using Research Randomizer (www.randomizer.org). Subcutaneous tumor volume was measured using length ×width^2÷2. Tumor volume was measured three times each week. Orthotopic tumor growth was monitored by bioluminescence weekly. Mice were given D-luciferin (150 mg/kg) by ip and anesthetized with isoflurane, and tumor burden was measured by bioluminescence using the IVIS Spectrum In Vivo Imaging System (PerkinElmer). Drug treatment was started when significant tumor growth was detected. EP (0.5 mg/kg) was administered to mice ip once daily. PEPD^G278D (4 mg/kg) was administered to mice ip thrice weekly (Monday, Wednesday, Friday). Aderbasib (60 mg/kg) was administered to mice by gavage once daily. 5-FU (35 mg/kg) was administered to mice ip twice weekly (Monday and Thursday). EP, PEPD^G278D and 5-FU were administered to mice in PBS. Aderbasib was first dissolved in DMSO and then diluted by PBS (final 5% DMSO by volume). […] The mice were closely monitored for sign of adverse effects and weighed three times each week. […]

Data set [2] in a line: Monitoring of mice for signs of adverse effects. Type of data set: in vivo. The following applies: mouse, in vivo, ip, 35 mg/kg. The method, then: SCID mice (C.B.17 SCID) were bred by the Laboratory Animal Shared Resource at Roswell Park Comprehensive Cancer Center. Male mice at 7-8 weeks of age were used. All mouse experiments were approved by the Institutional Animal Care and Use Committee at Roswell Park Comprehensive Cancer Center under protocol 1022M. We established subcutaneous tumors by inoculating 1×10^6 HCT116 cells, 4×10^6 HT29 cells, or 2×10^6 SW48 cells to the flank of each mouse in 100 μl of serum free medium. Colon patient-derived xenograft (PDX) 14650 was established from a liver metastatic lesion in a patient treated at Roswell Park Comprehensive Cancer Center. Tumor fragments (˜20 mm^3) from donor mice were implanted into the flank of each mouse subcutaneously using a trocar. […] Subcutaneous tumor volume was measured using length ×width^2÷2. Tumor volume was measured three times each week. Orthotopic tumor growth was monitored by bioluminescence weekly. Mice were given D-luciferin (150 mg/kg) by ip and anesthetized with isoflurane, and tumor burden was measured by bioluminescence using the IVIS Spectrum In Vivo Imaging System (PerkinElmer). Drug treatment was started when significant tumor growth was detected. […] The mice were closely monitored for sign of adverse effects and weighed three times each week. […]

The subject of the next data set is HCT116 tumors. Kind of data set: Subcutaneous HCT116 tumors in SCID mice. It is filed as in vivo, mouse. As to conditions: sc HCT116 tumors; 5-FU 35 mg/kg ip every 3-4 days, alone or with EP and PEPD^G278D 4 mg/kg, without aderbasib (FIG. 14). The method, then: SCID mice (C.B.17 SCID) were bred by the Laboratory Animal Shared Resource at Roswell Park Comprehensive Cancer Center. Male mice at 7-8 weeks of age were used. All mouse experiments were approved by the Institutional Animal Care and Use Committee at Roswell Park Comprehensive Cancer Center under protocol 1022M. We established subcutaneous tumors by inoculating 1×10^6 HCT116 cells, 4×10^6 HT29 cells, or 2×10^6 SW48 cells to the flank of each mouse in 100 μl of serum free medium. Colon patient-derived xenograft (PDX) 14650 was established from a liver metastatic lesion in a patient treated at Roswell Park Comprehensive Cancer Center. Tumor fragments (˜20 mm^3) from donor mice were implanted into the flank of each mouse subcutaneously using a trocar. Orthotopic colon tumors in mice were established by inoculating HCT116 cells stably transfected with firefly luciferase (2×10^6 cells in 50 μl of 50% serum-free medium and 50% Matrigel) to the caecum wall of each mouse. Mice in each tumor model were randomized cage-wise into treatment groups using Research Randomizer (www.randomizer.org). Subcutaneous tumor volume was measured using length ×width^2÷2. Tumor volume was measured three times each week. Orthotopic tumor growth was monitored by bioluminescence weekly. Mice were given D-luciferin (150 mg/kg) by ip and anesthetized with isoflurane, and tumor burden was measured by bioluminescence using the IVIS Spectrum In Vivo Imaging System (PerkinElmer). Drug treatment was started when significant tumor growth was detected. EP (0.5 mg/kg) was administered to mice ip once daily. […] Aderbasib (60 mg/kg) was administered to mice by gavage once daily. 5-FU (35 mg/kg) was administered to mice ip twice weekly (Monday and Thursday). EP, PEPD^G278D and 5-FU were administered to mice in PBS. Aderbasib was first dissolved in DMSO and then diluted by PBS (final 5% DMSO by volume). Each agent was administered to mice at 0.1 ml volume per 20 g body weight. When a mouse was given multiple agents on the same day, the agents were dosed at approximately 30 min intervals. The mice were closely monitored for sign of adverse effects and weighed three times each week. Mice were sacrificed 24-48 hours after the last treatment, at which point the tumors were promptly removed, snap frozen and stored at −80° C. for later analysis. Some tumors were fixed in 10% buffered formalin, paraffin embedded, cut at 4 μm, and stained with hematoxylin and eosin (H & E) for histological analysis.

In data set [3] the test system is HER3, MET, IGF1R, SRC, AKT, ERK, MEK. Kind of data set: Western blotting of whole cell lysates: other RTKs and downstream signaling proteins. As to conditions: HCT116, HT29 and SW620 cells; 275-277 nM, 48 h. It is filed as cell-based, human. The procedure:
as §1
(§2) Protein concentrations in all samples were measured using the BCA Assay Kit. For Western blotting, each sample was mixed with 4× loading dye, heated for 5 min at 95° C., and resolved by SDS-PAGE (8-12.5%). Proteins were transferred to polyvinylidene fluoride membrane, probed with specific antibodies, and detected using either Luminata Classico (Millipore) or Luminata Cresendo (Millipore). For IP, cell lysates (0.5 mg protein/sample) were incubated with a desired antibody overnight at 4° C., followed by incubation of 500 μl sample with 30 μl G-Sepharose beads (2 mg/ml) for 1 h at RT. The beads were washed three times with IP buffer, suspended in 2× SDS loading buffer, boiled for 5 min, and analyzed by Western blotting.

The subject of a further data set is HCT116 cells. In words: MTT cell proliferation assay. As to conditions: 24, 48 or 72 h, PEPD^G278D 5-250 nM, cetuximab 2.75-275 nM, panitumumab 2.77-277 nM. Type of data set: cell-based, human. The procedure: (§3) Cells were grown in 96-well plates. […] The cells were then washed with PBS and mixed with dimethyl sulfoxide (150 μl per well), and cell density was determined by measuring the reduction of MTT to formazan spectroscopically at 570 nm using a Synergy 2 Multi-Mode Microplate Reader (BioTek). In experiments involving siRNA transfection, 2×10^3 HCT116 cells or 6×10^3 HT29 cells were seeded to each well of 96-well plates overnight and then transfected 25 nM siRNA (scramble siRNA, EGFR siRNA or HER2 siRNA) as described above, followed by MTT assay.

A further data set concerns SW48 cells. In words: MTT cell proliferation assay. It is filed as cell-based, human. As to conditions: 24, 48 or 72 h, PEPD^G278D 5-250 nM, cetuximab 2.75-275 nM, panitumumab 2.77-277 nM. The method, then:
as §3
For orientation: Tetrazolium dyes change colour on reduction, which living cells bring about.

A further data set has as its system HT29 cells. In words: MTT cell proliferation assay. Type of data set: cell-based, human. As to conditions: 24, 48 or 72 h, PEPD^G278D 5-250 nM, cetuximab 2.75-275 nM, panitumumab 2.77-277 nM. The method, then: as §3
Data set [4] relates to EGFR and HER2. Kind of data set: Western blotting of whole cell lysates: EGFR and HER2. It is filed as cell-based, human. As to conditions: HB-EGF 20 ng/ml alone, without PEPD^G278D and FBS. The procedure: as §1, §2
In data set [5] the target is T1, EGFR and HER2 (Homo sapiens, UniProt P00533).
T1 construct: Both EGFR and HER2 were expressed in HCT116, HT29, and SW48 cells; endogenous in cells; host or cells: HCT116, HT29, SW48 (SW620 lacks both)
The data set is described as above. Type of data set: cell-based. The following applies: HB-EGF 20 ng/ml in medium without serum. The method, then:
as §1, §2

As for `CCN(CC)CCCC(C)Nc1ccnc2cc(Cl)ccc12` (centres unmarked) [chloroquine, reference compound], the “EGFR degradation induced by PEPD^G278D” value in the data set on EGFR is reported as “blocked EGFR degradation”.

Regarding enoxaparin [EP], the “expression or phosphorylation of the proteins analyzed in tumors” value in [1] is on record as “neither EP nor aderbasib had any effect”.

`O=c1[nH]cc(F)c(=O)[nH]1` [5-FU, fluorouracil]: the tumor growth result with HT29 tumors and in the data set with HCT116 tumors was “ineffective” in each case. For the same compound, the “toxicity in a dose-finding experiment” value in data set [2] is “not toxic”.

As for panitumumab [reference compound], the “effect on MET and ERK” value in [3] was “neither cetuximab nor panitumumab had any effect”. The “cell growth measured by MTT assay” value is “neither agent is active” in the data set on HCT116 cells; “inhibited the growth of SW48 cells in a time- and concentration-dependent manner” in the data set on SW48 cells; “neither agent is active” in the data set with HT29 cells.

In the case of “HB-EGF: recombinant human HB-EGF, a high affinity EGFR ligand [reference compound]”, the “expression of EGFR or HER2” value in the data set with EGFR and HER2 [4] is listed as “did not modulate the expression”. In the data set with EGFR and HER2 [5], the “effect on EGFR depletion induced by PEPD^G278D” value is reported as “mimicked the effect of serum”.
